This is an account of results in patent publication US10882818B1, “P-bromoaniline cassic acid ester with antibacterial activity and a method of preparing the same” (ZHUHAI JINAN SELENIUM SOURCE NANOTECHNOLOGY CO., LTD., priority 2020, dated 2021).

Holding throughout (type): cell-based
Assay [1] has as its system carbapenem-resistant Acinetobacter baumannii CR-AB 18-183. The experiment in a line: Antibacterial activity test, MIC by microbroth dilution. The conditions noted are these: 37° C., 20-22 hours. The source says: (§1) The minimal inhibitory concentration (MIC) of the compounds as determined by microbroth dilution method with gentamicin, cefazolin sodium and ceftriaxone sodium as positive control.
(§2) The experimental strains included methicillin-resistant Gram-positive bacteria: methicillin-resistant Staphylococcus aureus MRSA 18-222, 18-575; multiple drug-resistant Gram-negative bacteria: vancomycin-resistant enterococci VRE 18-80, 18-94, multidrug-resistant Pseudomonas aeruginosa MDR-PA 18-1774, 18-202, carbapenem-resistant Acinetobacter baumannii CR-AB 18-183, 18-560. All the experimental strains were donated by Huashan Hospital affiliated to Fudan University (Institute of Antibiotics, Fudan University) and used after routine identification.
(§3) Preparation of MHB medium: 20.0 g MHB medium was added to 1 L distilled water, boiled until completely dissolved, packed in conical bottles and sterilized at 121° C. for 15 min.
(§4) The experimental strain was cultured to the logarithmic growth phase: under aseptic condition, the experimental strain was inoculated into 100 mL MHB medium and incubated in a constant temperature and humidity incubator at 37° C. for 20-22 hours.
(§5) Preparation of storage solution: weighing the sample to be tested, dissolving it with 1% DMSO solution, preparing a storage solution with a concentration of 2560 μg/mL; weighing a positive reference substance, dissolving it with aseptic distilled water, and configuring a storage solution with a concentration of 2560 μg/mL.
(§6) Preparation of bacterial suspension: under aseptic condition, the experimental strains cultured to logarithmic growth phase were adjusted to 0.5 MCF turbidity standard with MHB medium and diluted according to 1:10, and the bacterial suspension with concentration of 10^6 CFU/mL was prepared for standby.
(§7) Dilution of storage solution and inoculation of experimental strain: under aseptic condition, the storage solution was diluted to 256 μg/mL solution; taking a sterile 96-well plate, adding 200 μL MHB medium to the 12th well, and adding 100 μL MHB medium to each well; adding 100 μL of positive control solution to the first well, mixing well, and sucking 100 μL from it and discarding; adding 100 μL of the compound sample solution to the second well, mixing well, and then pipetting 100 μL to the third well; after mixing, pipetting 100 μL to the fourth well, and diluting to the 11th well in this way; finally, 100 μL was pipetted from the 11th well and discarded, the 12th hole was the growth control without drugs. The concentration of the positive reference substance is 128 μg/mL; the concentrations of the sample solution are 128, 64, […], 8, 4, 2, 1, 0.5, 0.25 μg/mL, respectively. Then, 100 μL of the prepared bacterial suspension is added to each well, so that the final concentration of the bacterial liquid in each well is 5×10^5 CFU/mL.
(§8) Incubation: covering the 96-well plate inoculated with the experimental strains, and incubating in a constant temperature and humidity box at 37° C. for 20-22 hours.

Assay [2] concerns carbapenem-resistant Acinetobacter baumannii CR-AB 18-560. The assay is described as above. The conditions noted are these: 37° C., 20-22 hours.
Excerpt: as §1, §2, §3, §4, §5, §6, §7, §8

In assay [3] the test system is methicillin-resistant Staphylococcus aureus MRSA 18-222. The assay is described as above. The conditions noted are these: 37° C., 20-22 hours.
Excerpt: as §1, §2, §3, §4, §5, §6, §7, §8

Assay [4] deals with methicillin-resistant Staphylococcus aureus MRSA 18-575. The assay is described as above. Particulars: 37° C., 20-22 hours.
Excerpt: as §1, §2, §3, §4, §5, §6, §7, §8

The test system of assay [5] is multidrug-resistant Pseudomonas aeruginosa MDR-PA 18-202. Described as above. Particulars: 37° C., 20-22 hours.
Excerpt: as §1, §2, §3, §4, §5, §6, §7, §8

Assay [6] deals with vancomycin-resistant enterococci VRE 18-80. Described as above. Particulars: 37° C., 20-22 hours.
Excerpt: as §1, §2, §3, §4, §5, §6, §7, §8

For assay [7], the system named is vancomycin-resistant enterococci VRE 18-94. Described as above. Particulars: for Minimum bacteriostatic concentration: VRE 18-94, microbroth dilution, 37° C., 20-22 hours.
Excerpt: as §1, §2, §3, §4, §5, §6, §7, §8

The subject of assay [8] is multidrug-resistant Pseudomonas aeruginosa MDR-PA 18-174. The description is as above. The conditions noted are these: for Minimum bacteriostatic concentration: MDR-PA 18-174, microbroth dilution, 37° C., 20-22 hours.
Excerpt: as §1, §2, §3, §4, §5, §6, §7, §8
In FIGS. 1-6, the twelve wells represent twelve groups, from left to right, positive, 128 μg/mL, 64 μg/mL, 32 μg/mL, 16 μg/mL, 8 μg/mL, 4 μg/mL, 2 μg/mL, 1 μg/mL, […], Negative.

A further assay relates to drug-resistant bacteria. The experiment in a line: Antibacterial activity test, overall result on the strain panel. Particulars: all experimental strains, up to 128 μg/mL.
Excerpt: as §1, §2, §3
The experimental strain was cultured to the logarithmic growth phase: under aseptic condition, the experimental strain was inoculated into 100 mL MHB medium and incubated in a constant temperature and humidity incubator at 37° C. for 20-22 hours. […]

Converted amounts (≈) assume the structure as drawn.

As for `O=C(O)c1cc(O)c2c(c1)C(=O)c1cccc(O)c1C2=O` [Cassic acid], the Minimum bacteriostatic concentration in assay [1], in assay [2], in assay [3], in assay [4], in assay [5] and in assay [6] was above 128 µg/mL throughout. The Minimum bacteriostatic concentration in assay [7] and in [8] was above 128 µg/mL each time. Also, the “inhibitory effect on drug-resistant bacteria” value with drug-resistant bacteria is “no inhibitory effect”.

Turning to `Cc1nnc(SCC2=C(C(=O)O)N3C(=O)[C@@H](NC(=O)Cn4cnnn4)[C@H]3SC2)s1` [Cefazolin sodium, cefazolin sodium], the Minimum bacteriostatic concentration was above 128 µg/mL in assay [1]; above 128 µg/mL in [2]; above 128 µg/mL in [3]; above 128 µg/mL in assay [4]; 128 µg/mL in assay [5]; 32 µg/mL in [6]. The Minimum bacteriostatic concentration in assay [7] is above 128 µg/mL; in [8], 8 µg/mL.

`CO/N=C(\C(=O)N[C@@H]1C(=O)N2C(C(=O)O)=C(CSc3nc(=O)c(=O)[nH]n3C)CS[C@H]12)c1csc(N)n1` [Ceftriaxone sodium, ceftriaxone sodium]: the Minimum bacteriostatic concentration in assay [1] was above 128 µg/mL; in [2], above 128 µg/mL; in [3], above 128 µg/mL; in assay [4], above 128 µg/mL; in assay [5], 16 µg/mL; in [6], 8 µg/mL. The Minimum bacteriostatic concentration in [7] is above 128 µg/mL; in assay [8], 128 µg/mL.

For the compound `Nc1ccc(Br)cc1` [P-Bromoaniline, P-bromoaniline], the Minimum bacteriostatic concentration in assay [1], in assay [2], in assay [3], in [4], in [5] and in assay [6] was above 128 µg/mL in each case. Besides, the Minimum bacteriostatic concentration in assay [7] and in [8] was above 128 µg/mL throughout. For the same compound, the “inhibitory effect on drug-resistant bacteria” value in the assay with drug-resistant bacteria was “no inhibitory effect”.

On to `O=C(Nc1ccc(Br)cc1)c1cc(O)c2c(c1)C(=O)c1cccc(O)c1C2=O` [p-Bromoaniline cassic acid ester, N-(4-bromophenyl)-4,5-dihydroxy-9,10-dioxo-9,10-dihydroanthracene-2-carboxamide], for which the Minimum bacteriostatic concentration in assay [1], in assay [2], in assay [3], in assay [4], in assay [5] and in assay [6] was above 128 µg/mL each time. The Minimum bacteriostatic concentration in [7] amounted to 128 µg/mL; in [8], 32 µg/mL. In addition, the MIC in [7] (Enterococcus, vancomycin-resistant enterococci VRE 18-94) was found to be 128 µg/mL (≈ 292 µM); in assay [8] (multi-drug resistant Pseudomonas aeruginosa MDR-PA (strain number not given)), 32 µg/mL (≈ 73 µM).

With gentamicin, the Minimum bacteriostatic concentration is above 128 µg/mL in [1]; above 128 µg/mL in [2]; 128 µg/mL in assay [3]; 2 µg/mL in [4]; 0.0625 µg/mL in [5]; 0.0625 µg/mL in [6]. The Minimum bacteriostatic concentration in assay [7] is above 128 µg/mL; in assay [8], 0.0625 µg/mL.
